Measurements published in ChEMBL document CHEMBL1201862, “PubChem BioAssay data set” (2004).
Calls of active or inactive are those of the source.

Tests used:
[1] = microbe, parasite or virus in culture; format: functional; details: Mycobacterium tuberculosis
[2] = Luminescence Cell-Based Dose Retest to Confirm Inhibitors of Cancer Stem Cells. [Related pubchem assays (depositor defined):AID2717, AID2721]; format: functional; details: Homo sapiens
cells [3] = format: functional, cell-based
cells [4] = format: functional, cell-based; remark: listed apart in the source
[5] = Luminescence Cell-Based Dose Confirmation HTS to Identify Activators of 5'UTR Stem-Loop Driven Alpha-Synuclein mRNA Translation in H4 Neuroglioblastoma Cells. [Related pubchem assays: 1829 (Project Summary), 1814 (Primary HTS)]; format: functional
[6] = Luminescence Cell-Based Dose Response HTS to Identify Activators of Luciferase Translation or Activity in H4 […] Cells. [Related pubchem assays: 1829 (Project Summary), 1814 (Primary HTS)]; format: functional
H4 = assay: Luminescence Cell-Based Dose Response HTS to Identify Activators of 5'UTR Stem-Loop Driven Prion Protein mRNA Translation in H4 Neuroglioblastoma Cells. [Related pubchem assays: 1829 (Project Summary), 1814 (Primary HTS)]; format: functional; details: Homo sapiens
Nonstructural protein 1 = Nonstructural protein 1 (Influenza A virus, UniProt Q194T2); format: functional, Influenza A virus (A/California/07/2009(H1N1))
Sequence of Nonstructural protein 1 (Q194T2 whole entry): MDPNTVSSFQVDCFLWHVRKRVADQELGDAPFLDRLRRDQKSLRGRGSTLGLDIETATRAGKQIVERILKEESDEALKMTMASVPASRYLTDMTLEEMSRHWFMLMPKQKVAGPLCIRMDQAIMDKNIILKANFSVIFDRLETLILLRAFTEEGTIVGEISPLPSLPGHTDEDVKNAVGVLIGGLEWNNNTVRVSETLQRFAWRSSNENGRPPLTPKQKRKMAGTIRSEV

[7] = molecular target: Heat shock protein HSP 90-alpha (Homo sapiens, UniProt P07900); format: functional, organism-based
Genome polyprotein = Genome polyprotein (dengue virus type 2, UniProt P29990); assay: Dengue-2 NS5 methyltransferase inhibitors, primary screen, biochemical, confirmation dose response (AID 588689); format: functional
Sequence of Genome polyprotein (P29990 2492-3391 limits assumed): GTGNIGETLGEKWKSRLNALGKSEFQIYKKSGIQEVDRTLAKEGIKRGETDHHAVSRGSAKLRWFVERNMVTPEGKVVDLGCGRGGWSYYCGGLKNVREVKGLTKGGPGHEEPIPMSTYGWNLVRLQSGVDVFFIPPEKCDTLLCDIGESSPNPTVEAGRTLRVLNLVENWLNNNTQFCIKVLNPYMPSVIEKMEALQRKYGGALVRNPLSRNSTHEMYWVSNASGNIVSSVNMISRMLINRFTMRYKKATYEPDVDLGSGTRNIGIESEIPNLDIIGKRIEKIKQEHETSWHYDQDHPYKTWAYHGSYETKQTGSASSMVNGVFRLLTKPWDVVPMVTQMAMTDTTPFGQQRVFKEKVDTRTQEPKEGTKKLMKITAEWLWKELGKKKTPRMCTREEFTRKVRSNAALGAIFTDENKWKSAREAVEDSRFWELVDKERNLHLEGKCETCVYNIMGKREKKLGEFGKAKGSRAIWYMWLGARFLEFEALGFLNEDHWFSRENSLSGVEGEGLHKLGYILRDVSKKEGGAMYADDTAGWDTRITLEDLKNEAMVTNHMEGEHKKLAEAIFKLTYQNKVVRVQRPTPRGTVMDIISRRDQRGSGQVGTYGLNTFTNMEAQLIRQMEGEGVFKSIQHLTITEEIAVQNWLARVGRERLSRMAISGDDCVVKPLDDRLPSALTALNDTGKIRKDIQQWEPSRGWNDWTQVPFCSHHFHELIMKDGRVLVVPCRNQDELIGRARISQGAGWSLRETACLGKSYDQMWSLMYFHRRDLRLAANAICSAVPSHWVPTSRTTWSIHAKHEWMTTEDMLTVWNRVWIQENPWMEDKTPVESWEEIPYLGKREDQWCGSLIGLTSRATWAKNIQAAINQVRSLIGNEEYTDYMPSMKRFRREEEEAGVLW

[8] = HepG2 cell cytotoxicity, dose response, cytotoxicity control for Shn3 inhibitor project, CellTiter-Glo, cherry-picked (AID 624134); format: functional, cell-based
[9] = control 3'UTR Renilla luciferase suppression, dose response, counter-screen for Shn3 inhibitor project, cell-based, Clone20-Shn3RL, cherry-picked (AID 624133); format: functional
[10] = Shn3 3'UTR reporter inhibitors, dose response, cell-based, Clone20 osteoblasts, firefly luciferase, cherry-picked (AID 624132); format: functional;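 further: firefly luciferase luminescence from reporter carrying the Shn3 3'UTR in osteoblasts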
[11] = test system: Streptococcus sp. 'group A'; assay: growth inhibition of control SK(-) GAS strain, dose response, counter-screen for streptokinase expression inhibitor project, luminescence, kanamycin, BacTiterGlo, confirmation (AID 1900); format: functional, organism-based
Streptococcus = assay: Group A Streptococcus viability loss, dose response, counter-screen for streptokinase expression inhibitor project, luminescence, BacTiterGlo (AID 1915); format: functional, organism-based;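 further: potency for reduction of bacterial viability or growth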
Streptokinase A = molecular target: T1, Streptokinase A (Streptococcus pyogenes serotype M1, UniProt P10520); assay: S. pyogenes streptokinase expression inhibitors, potency, dose response, plasminogen activation absorbance, OD405 (AID 1914); format: functional, Streptococcus pyogenes M1 GAS;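 further: secreted streptokinase activity via plasminogen activation per viability signal from cell pellet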
T1 sequence (P10520 whole entry): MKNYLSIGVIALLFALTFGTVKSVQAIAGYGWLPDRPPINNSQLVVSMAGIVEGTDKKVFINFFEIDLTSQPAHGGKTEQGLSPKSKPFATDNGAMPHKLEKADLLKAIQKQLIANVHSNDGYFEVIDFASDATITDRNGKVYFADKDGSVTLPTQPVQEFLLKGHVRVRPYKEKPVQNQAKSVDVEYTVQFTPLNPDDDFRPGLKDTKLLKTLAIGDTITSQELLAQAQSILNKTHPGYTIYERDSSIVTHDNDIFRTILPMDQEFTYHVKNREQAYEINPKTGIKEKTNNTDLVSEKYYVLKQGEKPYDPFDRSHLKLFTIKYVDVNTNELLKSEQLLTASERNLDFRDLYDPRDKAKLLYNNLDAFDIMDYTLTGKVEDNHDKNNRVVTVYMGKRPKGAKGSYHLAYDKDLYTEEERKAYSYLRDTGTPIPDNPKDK

H9c2 = assay: cells; format: functional, cell-based; details: Rattus norvegicus, H9c2, Myocardium;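 further: confirmatory concentration-response retest of ultra-high-throughput screening hits for modulation of myocardial damage; cell death induced by hydrogen peroxide oxidative stress; compound pretreatment for 60 min then peroxide exposure for 2 h; potency is for protecting the cells against peroxide damage rather than for killing them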
Protein RecA = molecular target: T2, Protein RecA (Mycobacterium tuberculosis, UniProt P9WHJ3); assay: Fluorescence Cell-Free Homogeneous Dose Retest to Identify Inhibitors of RecA-Intein Splicing Activity. [Related pubchem assays (depositor defined):AID2097, AID2223, AID489010, AID492950]; format: functional
T2 sequence (P9WHJ3 whole entry): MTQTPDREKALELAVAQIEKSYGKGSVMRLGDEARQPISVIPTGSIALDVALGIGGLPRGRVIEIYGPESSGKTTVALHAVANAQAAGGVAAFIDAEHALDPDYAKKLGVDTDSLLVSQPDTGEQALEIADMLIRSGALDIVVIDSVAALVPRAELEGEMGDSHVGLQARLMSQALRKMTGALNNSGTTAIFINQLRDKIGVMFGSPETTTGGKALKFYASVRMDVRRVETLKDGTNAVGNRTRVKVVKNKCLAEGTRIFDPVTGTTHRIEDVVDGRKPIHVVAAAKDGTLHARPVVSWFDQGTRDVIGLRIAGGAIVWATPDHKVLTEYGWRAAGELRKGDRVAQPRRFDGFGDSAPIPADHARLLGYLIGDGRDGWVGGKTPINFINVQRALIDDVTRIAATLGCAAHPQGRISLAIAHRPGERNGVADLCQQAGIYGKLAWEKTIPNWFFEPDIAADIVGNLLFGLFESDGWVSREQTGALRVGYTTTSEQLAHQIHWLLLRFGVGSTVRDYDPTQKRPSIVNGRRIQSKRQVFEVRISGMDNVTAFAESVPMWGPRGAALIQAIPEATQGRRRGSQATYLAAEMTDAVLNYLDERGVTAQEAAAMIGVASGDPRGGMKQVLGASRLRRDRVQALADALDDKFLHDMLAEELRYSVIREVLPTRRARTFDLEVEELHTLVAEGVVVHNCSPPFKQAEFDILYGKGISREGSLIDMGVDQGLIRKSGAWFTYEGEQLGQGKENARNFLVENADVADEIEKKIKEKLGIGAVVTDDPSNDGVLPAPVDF

[12] = molecular target: T3, Replicative DNA helicase DnaB (Mycobacterium tuberculosis, UniProt P9WMR3); assay: DnaB intein splicing inhibitors, dose response, biochemical, cell-free fluorescence (AID 449749); format: functional
T3 sequence (P9WMR3 whole entry): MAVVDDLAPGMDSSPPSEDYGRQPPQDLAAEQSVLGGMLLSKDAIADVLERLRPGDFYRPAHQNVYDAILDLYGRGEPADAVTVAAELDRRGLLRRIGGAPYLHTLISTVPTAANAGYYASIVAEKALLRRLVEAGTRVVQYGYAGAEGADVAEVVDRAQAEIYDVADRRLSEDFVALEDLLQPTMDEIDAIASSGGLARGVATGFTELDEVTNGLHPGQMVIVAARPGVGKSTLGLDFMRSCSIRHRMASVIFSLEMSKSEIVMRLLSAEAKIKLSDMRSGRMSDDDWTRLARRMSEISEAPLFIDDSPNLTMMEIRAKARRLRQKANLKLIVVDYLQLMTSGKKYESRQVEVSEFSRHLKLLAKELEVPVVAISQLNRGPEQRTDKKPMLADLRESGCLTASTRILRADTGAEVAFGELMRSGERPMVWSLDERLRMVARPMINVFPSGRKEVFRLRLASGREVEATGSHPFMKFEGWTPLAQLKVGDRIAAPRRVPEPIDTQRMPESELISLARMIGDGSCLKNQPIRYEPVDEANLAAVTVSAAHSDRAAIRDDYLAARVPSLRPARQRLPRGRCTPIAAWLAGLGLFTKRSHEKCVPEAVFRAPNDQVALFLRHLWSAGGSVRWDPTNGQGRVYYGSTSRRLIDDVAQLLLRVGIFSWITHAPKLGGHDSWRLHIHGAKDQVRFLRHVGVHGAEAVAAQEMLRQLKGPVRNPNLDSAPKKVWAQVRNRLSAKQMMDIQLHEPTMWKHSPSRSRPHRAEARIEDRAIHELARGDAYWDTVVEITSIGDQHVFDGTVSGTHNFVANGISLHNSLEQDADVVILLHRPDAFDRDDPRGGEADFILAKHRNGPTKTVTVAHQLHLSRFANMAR

[13] = molecular target: T4, DNA repair protein RAD52 homolog (Homo sapiens, UniProt P43351); format: functional, biochemical
T4 sequence (P43351 whole entry): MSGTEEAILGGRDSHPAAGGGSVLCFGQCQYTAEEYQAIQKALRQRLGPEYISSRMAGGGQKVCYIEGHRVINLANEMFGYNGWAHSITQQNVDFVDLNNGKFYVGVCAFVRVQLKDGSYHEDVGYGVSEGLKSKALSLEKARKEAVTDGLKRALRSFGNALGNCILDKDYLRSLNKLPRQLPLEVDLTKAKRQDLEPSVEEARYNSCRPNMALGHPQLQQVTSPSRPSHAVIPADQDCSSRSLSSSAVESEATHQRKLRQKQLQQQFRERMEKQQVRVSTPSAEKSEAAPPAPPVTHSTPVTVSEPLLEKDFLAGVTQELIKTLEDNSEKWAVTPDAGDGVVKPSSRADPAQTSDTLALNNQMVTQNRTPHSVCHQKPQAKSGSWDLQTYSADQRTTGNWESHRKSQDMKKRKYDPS

Large T antigen = Large T antigen (Simian virus 40, UniProt P03070); format: functional, Betapolyomavirus macacae;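 further: Confirmatory-stage PubChem screen for compounds that inhibit SV40 T antigen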
Sequence of Large T antigen (P03070 whole entry): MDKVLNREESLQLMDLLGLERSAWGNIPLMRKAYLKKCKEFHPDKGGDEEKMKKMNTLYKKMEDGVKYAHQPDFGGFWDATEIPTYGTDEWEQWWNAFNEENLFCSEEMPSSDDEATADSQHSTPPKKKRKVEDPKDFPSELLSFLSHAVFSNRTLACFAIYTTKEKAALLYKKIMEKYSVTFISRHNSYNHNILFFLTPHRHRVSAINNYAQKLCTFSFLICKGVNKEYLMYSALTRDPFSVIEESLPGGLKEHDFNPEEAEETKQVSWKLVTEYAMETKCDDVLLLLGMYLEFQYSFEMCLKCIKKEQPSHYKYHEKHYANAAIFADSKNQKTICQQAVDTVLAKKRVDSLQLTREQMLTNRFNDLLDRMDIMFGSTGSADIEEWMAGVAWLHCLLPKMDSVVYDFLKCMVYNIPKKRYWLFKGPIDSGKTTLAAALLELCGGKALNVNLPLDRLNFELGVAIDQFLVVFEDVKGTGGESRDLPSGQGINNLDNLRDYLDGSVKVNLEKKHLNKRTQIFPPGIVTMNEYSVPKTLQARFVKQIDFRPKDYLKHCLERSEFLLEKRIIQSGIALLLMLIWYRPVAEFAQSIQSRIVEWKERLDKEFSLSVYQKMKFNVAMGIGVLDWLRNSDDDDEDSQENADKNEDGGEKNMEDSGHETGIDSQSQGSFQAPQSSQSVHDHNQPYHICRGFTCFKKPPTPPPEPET

Cc1ccc(Cl)cc1N1CCN(CC(=O)NC2CCCc3ccccc32)CC1 (configuration not stated)
CC50 [1]: > 40 µM (active) | AC50 [2]: 5.48 µM (active)

N#CCC(=O)N/N=C/c1ccc(SCC(=O)Nc2ccccc2)o1
EC50 (cells [3]): > 350 µM (not active) | EC50 (cells [4]): > 350 µM (not active)

COc1ccc2occ(C(=O)c3cccs3)c2c1
EC50 [5]: 6.67 µM (active) | EC50 [6]: 13.3 µM (active) | EC50 (H4): 32.6 µM (active)

COc1cc(CC(=O)Nc2ccc(Cl)c(C(F)(F)F)c2)cc(OC)c1OC
EC50 (cells [3]): > 350 µM (not active) | EC50 (cells [4]): > 350 µM (not active)

Cc1csc(NC(=O)CSc2ccc(-c3ccccn3)nn2)n1
IC50 (Nonstructural protein 1): 10.2 µM (active)

COC(=O)c1ccc(CSc2nc3c(c(=O)n2-c2ccc(F)cc2)SCC3)o1
EC50 (cells [3]): > 350 µM (not active) | EC50 (cells [4]): > 350 µM (not active)

O=C1OC(c2ccccc2)(c2cc(Br)c(O)c(Br)c2)c2ccccc21 (configuration not stated)
AC50 [7]: 4.1 µM (active) | IC50 (Genome polyprotein): 35.2 µM (active)

COc1ccc(C2CC(c3ccccc3)=NN2c2ccc(Cl)c(C(=O)O)c2)cc1 (configuration not stated)
IC50 (Genome polyprotein): 39.9 µM (active)

Cc1ccc(Nc2cc(-n3cccn3)ncn2)c(C)c1
EC50 [5]: 0.12 µM (active) | EC50 [6]: 0.619 µM (active) | EC50 (H4): < 0.1 µM (active)

Cn1nc(C(=O)NC2CCCCC2)c2c1-c1ccccc1SC2
EC50 [5]: 13.4 µM (active) | EC50 [6]: 25.7 µM (active) | EC50 (H4): 12.2 µM (active)

O=C1CCCC(=O)C1=CNc1cccc(C(F)(F)F)c1
EC50 (cells [3]): > 350 µM (not active) | EC50 (cells [4]): > 350 µM (not active)

c1ccc2c(-c3n[nH]cc3CNCCCn3ncc4ccccc43)cccc2c1
AC50 [8]: 56.7 µM (active) | AC50 [9]: 4.62 µM (active) | AC50 [10]: 3.25 µM (active)

CCc1nnc(NC(=O)c2cc(Cl)ccn2)s1
IC50 (Nonstructural protein 1): 11.1 µM (active)

CSC1=NN=C(c2ccc(C(C)(C)C)cc2)NN1
EC50 [5]: 15.2 µM (active) | EC50 [6]: 36.5 µM (active) | EC50 (H4): 16.9 µM (active)

O=C(CSC1=NCCS1)N1CCc2ccccc21
EC50 [5]: 10.7 µM (active) | EC50 [6]: 45.7 µM (active) | EC50 (H4): 15.4 µM (active)

C/C(=N\NC(=S)NCC(C)(C)C)c1cc(F)cc(F)c1O
CC50 [1]: 22.9 µM (active) | EC50 [11]: 1.32 µM (active) | EC50 (Streptococcus): 2.68 µM (active) | EC50 (Streptokinase A): 0.501 µM (active)

CCOC(=O)C1=c2s/c(=C\c3ccncc3)c(=O)n2C(N)=C(C(=O)OC)C1c1ccncc1 (configuration not stated)
IC50 (H9c2): > 79 µM (inactive)

CCC1(c2ccc(Cl)cc2)N=C(S)N(c2ccc(C)cc2)N1 (configuration not stated)
EC50 [5]: 19.1 µM (active) | EC50 [6]: 11.2 µM (active) | EC50 (H4): 14.7 µM (inconclusive)

COc1ccc(CC(NC(C)=O)C(=O)NC2CCN(C(=O)c3cccc(Cl)c3)CC2)cc1OC (configuration not stated)
EC50 (cells [3]): > 350 µM (not active) | EC50 (cells [4]): > 350 µM (not active)

COc1ccc(N(CC(=O)Nc2ccc3c(c2)OCO3)S(=O)(=O)c2ccccc2)c(OC)c1
IC50 (H9c2): > 79 µM (inactive)

O=C1NC(=S)N(C2CC2)C(=O)/C1=C/NNC(=O)c1ccccc1
IC50 (Nonstructural protein 1): 12.7 µM (active)

CCc1nc(C)c(C(=O)N2CCCC(C(=O)Nc3cccc(-c4cccc(C)c4)c3)C2)o1 (configuration not stated)
EC50 [5]: 8.19 µM (active) | EC50 [6]: 7.7 µM (active) | EC50 (H4): 16.3 µM (active)

Cc1ccc(N2CC(=O)Nc3c(sc4nc(C)cc(C)c34)C2=O)cc1
EC50 (cells [3]): > 350 µM (not active) | EC50 (cells [4]): > 350 µM (not active)

COc1cc(N=Nc2cccc(S(N)(=O)=O)c2)c2ccccc2c1N
EC50 (Protein RecA): 11.5 µM (active) | IC50 (Nonstructural protein 1): 14.2 µM (active) | AC50 [12]: 5.37 µM (active)

CCOc1ccc(NC(=O)CC(NCc2ccccn2)C(=O)O)cc1 (configuration not stated)
IC50 (Nonstructural protein 1): 1.28 µM (active)

CC(OC(=O)Cc1nnc(O)c2ccccc12)C(=O)Nc1cccc([N+](=O)[O-])c1 (configuration not stated)
IC50 (H9c2): > 79 µM (inactive)

Cc1cccc(OCC(=O)Nc2ccc3c(c2)nc(CN2CCCCC2)n3C)c1
AC50 [13]: 20 µM (active)

CCC1CCCCN1Cc1c(O)ccc2c(=O)c(-c3ccccc3OC)coc12 (configuration not stated)
EC50 (cells [3]): > 350 µM (not active) | EC50 (cells [4]): > 350 µM (not active)

Nc1ncc(N=Nc2cc(C(=O)O)ccc2Cl)s1
IC50 (Genome polyprotein): 73.6 µM (active) | IC50 (Large T antigen): 67.1 µM (active)

COC(=O)c1ccc(Cn2nnc3c(O)nc(C4CCCN(S(=O)(=O)c5ccccc5)C4)nc32)cc1 (configuration not stated)
IC50 (H9c2): 18.3 µM (active)

CCc1nnc(NC(=O)CCC(=O)N2CCN(C3c4ccccc4-c4ccccc43)CC2)s1
IC50 (H9c2): 17.4 µM (active)
